Experimental data reported in patent US5298621A, “Oligopeptide derivatives of ipoxantine endowed with immunomodulating activity and pharmaceutical compositions containing same” (Sigma-Tau Industrie Farmaceutiche Riunite S.p.A., priority 1990, dated 1994).

Columns and labels:
[1] = system: responders (thymus of C57B1/6) induced by stimulators (spleen of DBA/2); test: "In vitro-ex vivo" mixed lymphocyte reaction (MLR); design: species or system mice; details: for Body weight / Spleen weight / Thymus weight / ^3 H-TdR Incorporation (cpm ± S.E.) Non stimulated responders / ^3 H-TdR Incorporation (cpm ± S.E.) Stimulated responders / Thymocytes No. (× 10^7): 25 mg/kg/day i.p. from day -5 to day -1; for stimulator splenocytes-induced proliferation of responder thymocytes (in words): comparison with ST 789; for Thymocytes No. (× 10^7): pooled samples
Description: Test 8 Assessment of the "in vitro-ex vivo" effect of ST 733, ST 754 and ST 789 on the mixed lymphocyte reaction (MLR).
Male DBA/2 mice (Charles River, Italy) aged 8 weeks were used as "stimulators" (4 animals per group); male inbred C57 B1/6 mice (Charles River, Italy) were used as "responders" (4 animals per group).
The compounds were administered i.p. from day -5 to day -1 (thymus excision of "responders" at day 0) 25 mg/kg/day.
The experimental procedure that was used is described by Hudson, L. and Hay, F. C., Practical Immunology, Blackwell Scientific Publication 290 (1980).

splenocytes = test: "In vitro-ex vivo" mytogen (PHA)-induced splenocyte proliferation in mice
Description: Test 5 Assessment of the "in vitro-ex vivo" effect of ST 733 and ST 789 on the mytogen (PHA)-induced splenocyte proliferation in mice.
Male B6 D2 F1 mice (Charles River, Italy) aged 7-8 weeks (4 animals per group) were used.
PHA (phytohemagglutinine) active on T lymphocytes was used as mytogen. The mytogen was tested at three different concentrations (suboptimal, optimal, superoptimal): 0.5, 2 and 4 mcg/mL/well.
The compounds were administered i.p. 25 mg/kg/day from day -5 to day -1 (spleen excision at day 0).
The experimental procedure was conducted substantially as described by Kirchner et al, "Splenic suppressor macrophages induced in mice by injection of C. parvum", J. Immunol., 1975, 115:1212.
In particular, the cell suspensions obtained from the spleens of the animals of the same group were pooled and the cell concentration was adjusted to 5×10^6 cell/mL.
To volumes of 0.1 mL of each sample, equal volumes of the mytogen preparation were added so as to obtain the previously indicated final concentrations.
Each sample was prepared in triplicate in U-bottom microtiters. A control, to which 0.1 mL of medium was added instead of the mytogen, was also prepared. The control permits the extent of spontaneous proliferation in the absence of stimulation to be assessed.
The samples were incubated at 37° C. for 48 hours and then they were pulsed with 20 μL ^3 H-TdR (25 μCi/mL).
After 18 hours of further incubation, the cells were collected on filters and counted in a beta-counter to evaluate the incorporated radioactivity (in cpm).
The results for each sample are expressed by calculating the value of the area under the curve (AUC) obtained by plotting the values of the incorporated radioactivity (in cpm) versus the three concentrations of mytogen.
In addition to AUC, also the stimulation index (SI) is considered, that is defined as follows: [formula]

Klebsiella oxytoca = test: Protective effect in immunodepressed mice infected with Klebsiella oxytoca; type: in vivo; details: 25 mg/kg/day i.p. day -5 to -1, versus 44% mortality in the control group
Description: Test 2 Assessment of the protective effect induced by ST 657, ST 733, ST 754 and ST 789 on immunodepressed mice experimentally infected.
The immunosuppressor (cyclophosphamide) was administered i.p. in 0.2 mL of sterile saline, 100 mg/kg, 5 days before the infective challenge.
Compounds ST 733 and ST 754 (relevant data not shown in the tables) were administered i.p. (25 mg/kg/day) from day -5 (cyclophosphamide administration day) to day -1 (challenge at day 0) and tested utilizing Klebsiella oxytoca as infectious agent.

thymocytes = test: "In vitro-ex vivo" mytogen (PHA, Con A)-induced murine thymocite proliferation; design: species or system mice; details: for Body weight / Thymus weight / Con A AUC (× 10^-3) / Con A I.S. (stimulation index) / PHA AUC (area under curve) / PHA I.S. (stimulation index) / Thymocytes No. (× 10^7): 25 mg/kg/day i.p. from day -4 to day -1; for Con A AUC (× 10^-3) / Con A I.S. (stimulation index): Con A-induced proliferation; for PHA AUC (area under curve) / PHA I.S. (stimulation index): PHA-induced proliferation; for extent of induced thymocyte proliferation (in words): comparison with ST 789; for Thymocytes No. (× 10^7): pooled samples
Description: Test 7 Assessment of the "in vitro-ex vivo" effect of ST 754, ST 785 and ST 789 on the mytogen (PHA, Con A)-induced murine thymocite proliferation.
The compounds were administered at the dose of 25 mg/kg/day from day -4 to day -1 (thymus excision at day 0). This test was conducted following the procedure described for test 5.
The Stimulation Index (S.I.) is as defined in test 5.

DTH reaction vs. SRBC = test: Delayed type hypersensitivity test (DTH) vs. SRBC in mice; type: in vivo
Description: Test 6 Assessment of the effect of ST 785 and ST 789 on the delayed type hypersensitivity test (DTH).
Male B6 D2 F1 mice (Charles River, Italy) aged 6, 12 and 16 weeks (8 animals per group) were used.
The compounds were administered i.p., 25 mg/kg/day from day -3 to day +3 (immunization at day 0). Immunization was carried out by s.c. injection in the upper dorsal zone of the animals of 0.2 mL of SRBC (5×10^7 cells/mL).
Four days following the sensitizing injection, the animals were administered the challenge injection to bring about the delayed hypersensibility reaction. 50 μL of SRBC solution (2×10^9 cells/mL) were injected in the left hind foot-pad of the mice. The contralateral foot-pad received an equal volume of PBS. 24 hours after the challenge injection, the animals were sacrificed by cervical dislocation. The legs were amputated and the differences in weight between the left leg (treated with the challenge injection) and the contralateral leg were evaluated.
The mean of weight differences in the legs of the animals of the same experimental group was determined; the differences in the mean values calculated for each experimental group were processed using Student's "t" test (Biostatistics in Pharmacology, loc cit.).
The experimental procedure which was used is described by Miller, T. E. et al, (1973), Immunopotentiation with BCG. Modulation of the response to sheep red blood cells. J. Cancer Inst., 51:1669.

[2] = 25 mg/kg/day i.p. from day -5 to day -1

Compound: C[C@H](NC(=O)OCCCCCn1cnc2c(=O)[nH]cnc21)C(=O)NCC(=O)[O-].[Na+] [ST 733, N-5-(ipoxantin-9-yl) pentyloxycarbonyl L-alanyl-glycine sodium salt]
- Body weight [1]: 21.8 ± 0.8 g
- Spleen weight [1]: 88.7 ± 13.6 mg
- Thymus weight [1]: 61.5 ± 2.7 mg
- ^3 H-TdR Incorporation (cpm ± S.E.) Non stimulated responders [1]: 163.0 cpm
- ^3 H-TdR Incorporation (cpm ± S.E.) Stimulated responders [1]: 11187 cpm
- stimulator splenocytes-induced proliferation of responder thymocytes (in words) [1]: more potent than ST 789
- Thymocytes No. (× 10^7) [1]: 15.5 × 10^7
- Body weight (splenocytes; [2]): 23.4 ± 0.2 g
- Spleen weight (splenocytes; [2]): 74.0 ± 4.0 mg
- Thymus weight (splenocytes; [2]): 75.0 ± 4.0 mg
- PHA AUC (area under curve, cpm versus three mytogen concentrations) (splenocytes; PHA 0.5, 2 and 4 mcg/mL/well, 25 mg/kg/day i.p. from day -5 to day -1): 160 × 10^-3
- PHA I.S. (stimulation index) (splenocytes; PHA-induced proliferation, 25 mg/kg/day i.p. from day -5 to day -1): 1.82
- mytogen-induced proliferation versus the controls (in words) (splenocytes; PHA, 25 mg/kg/day i.p.): remarkable increase
- Splenocytes No. (× 10^7) (splenocytes; pooled samples, 25 mg/kg/day i.p. from day -5 to day -1): 14.7 × 10^7
- mortality (Klebsiella oxytoca): no mortality at all

Compound: C[C@H](NC(=O)OCCCCCn1cnc2c(=O)[nH]cnc21)C(=O)N[C@@H](CCCNC(=N)N)C(=O)O [ST 785, N-5-(ipoxantin-9-yl) pentyloxycarbonyl L-alanyl-arginine]
- Body weight (thymocytes): 22.5 ± 0.4 g
- Thymus weight (thymocytes): 73.0 ± 2.7 mg
- Con A AUC (× 10^-3) (thymocytes): 79 × 10^-3
- Con A I.S. (stimulation index) (thymocytes): 1.26
- PHA AUC (area under curve) (thymocytes): 4421
- PHA I.S. (stimulation index) (thymocytes): 1.58
- extent of induced thymocyte proliferation (in words) (thymocytes): more potent than ST 789
- Thymocytes No. (× 10^7) (thymocytes): 15.1 × 10^7
- Mean difference in weight (mg ± S.E.) between treated and untreated foot-pads (DTH reaction vs. SRBC; 25 mg/kg/day i.p. from day -3 to day +3 respect to the immunization): 22.4 ± 3.79 mg
- response to the DTH test (in words) (DTH reaction vs. SRBC; 25 mg/kg/day i.p., p≤0.01): remarkably reduce

Compound: N-5-(ipoxantin-9-yl) pentyloxycarbonyl L-(alpha) aspartyl L-arginine sodium salt [ST 754]
- Body weight (thymocytes): 22.9 ± 0.5 g
- Thymus weight (thymocytes): 74.0 ± 3.4 mg
- Con A AUC (× 10^-3) (thymocytes): 78 × 10^-3
- Con A I.S. (stimulation index) (thymocytes): 1.25
- PHA AUC (area under curve) (thymocytes): 3132
- PHA I.S. (stimulation index) (thymocytes): 1.12
- extent of induced thymocyte proliferation (in words) (thymocytes): more potent than ST 789
- Thymocytes No. (× 10^7) (thymocytes): 15.4 × 10^7
- Body weight [1]: 22.3 ± 0.5 g
- Spleen weight [1]: 81.2 ± 3.3 mg
- Thymus weight [1]: 57.5 ± 8.4 mg
- ^3 H-TdR Incorporation (cpm ± S.E.) Non stimulated responders [1]: 89.2 cpm
- ^3 H-TdR Incorporation (cpm ± S.E.) Stimulated responders [1]: 11011 cpm
- stimulator splenocytes-induced proliferation of responder thymocytes (in words) [1]: more potent than ST 789
- Thymocytes No. (× 10^7) [1]: 12.9 × 10^7
- mortality (Klebsiella oxytoca): no mortality at all
